Measurements: patent US6514971B1, “Cinnoline derivatives and use as medicine” (Zeneca Limited, priority 1996, dated 2003)
Structures can show the parent of a compound that is named as a salt.

Assays:
[1] = target: T1, epidermal growth factor (EGF) receptor tyrosine kinase (Homo sapiens, UniProt P00533); test: In vitro receptor tyrosine kinase inhibition test (EGF receptor); format: biochemical
T1 construct: made in house; host or cells: insect cells (baculovirus, as for Flt)
Description: (§1) (a) In Vitro Receptor Tyrosine Kinase Inhibition Test
This assay determines the ability of a test compound to inhibit tyrosine kinase activity. DNA encoding VEGF or epidermal growth factor (EGF) receptor cytoplasmic domains may be obtained by total gene synthesis (Edwards M, International Biotechnology Lab 5(3), 19-25, 1987) or by cloning. These may then be expressed in a suitable expression system to obtain polypeptide with tyrosine kinase activity. […] In the case of the VEGF receptor Flt (Genbank accession number X51602), a 1.7 kb DNA fragment encoding most of the cytoplasmic domain, commencing with methionine 783 and including the termination codon, described by Shibuya et al (Oncogene, 1990, 5: 519-524), was isolated from cDNA and cloned into a baculovirus transplacement vector (for example pAcYM1 (see The Baculovirus Expression System: A Laboratory Guide, L. A. King and R. D. Possee, Chapman and Hall, 1992) or pAc360 or pBlueBacHis (available from Invitrogen Corporation)). This recombinant construct was co-transfected into insect cells (for example Spodoptera frugiperda 21 (Sf21)) with viral DNA (eg Pharmingen BaculoGold) to prepare recombinant baculovirus. (Details of the methods for the assembly of recombinant DNA molecules and the preparation and use of recombinant baculovirus can be found in standard texts for example Sambrook et al, 1989. Molecular cloning—A Laboratory Manual, 2nd edition, Cold Spring Harbour Laboratory Press and O'Reilly et al, 1992, Baculovirus Expression Vectors—A Laboratory Manual. W. H. Freeman and Co. New York). For other tyrosine kinases for use in assays, cytoplasmic fragments starting from methionine 806 (KDR, Genbank accession number L04947) and methionine 668 (EGF receptor, Genbank accession number X00588) may be cloned and expressed in a similar manner.
For expression of cFlt tyrosine kinase activity, Sf21 cells were infected with plaque-pure cFlt recombinant virus at a multiplicity of infection of 3 and harvested 48 hours later. Harvested cells were washed with ice cold phosphate buffered saline solution (PBS) (10 mM sodium phosphate pH7.4, 138 mM NaCl, 2.7 mM KCl) then resuspended in ice cold HNTG/PMSF (20 mM Hepes pH7.5, 150 mM NaCl, 10% v/v glycerol, 1% v/v Triton X100. 1.5 mM MgCl2, 1 mM ethylene glycol-bis(βaminoethyl ether) N,N,N′,N′-tetraacetic acid (EGTA), 1 mM PMSF (phenylmethylsulphonyl fluoride); the PMSF is added just before use from a freshly-prepared 100 mM solution in methanol) using 1 ml HNTG/PMSF per 10 million cells. The suspension was centrifuged for 10 minutes at 13.000 rpm at 4° C., the supernatant (enzyme stock) was removed and stored in aliquots at −70° C. Each new batch of stock enzyme was titrated in the assay by dilution with enzyme diluent (100 mM Hepes pH 7.4, 0.2 mM Na3VO4, 0.1% v/v Triton X100, 0.2 mM dithiothreitol). For a typical batch, stock enzyme is diluted 1 in 2000 with enzyme diluent and 50 μl of dilute enzyme is used for each assay well.
(§2) A stock of substrate solution was prepared from a random copolymer containing tyrosine, for example Poly (Glu, Ala, Tyr) 6:3:1 (Sigma P3899), stored as 1 mg/ml stock in PBS at −20° C. and diluted 1 in 500 with PBS for plate coating.
(§3) On the day before the assay 100 μl of diluted substrate solution was dispensed into all wells of assay plates (Nunc maxisorp 96-well immunoplates) which were sealed and left overnight at 4° C.
(§4) On the day of the assay the substrate solution was discarded and the assay plate wells were washed once with PBST (PBS containing 0.05% v/v Tween 20) and once with 50 mM Hepes pH7.4.
Test compounds were diluted with 10% dimethylsulphoxide (DMSO) and 25 μl of diluted compound was transferred to wells in the washed assay plates. “Total” control wells contained 10% DMSO instead of compound. Twenty five microliters of 40 mM MnCl2 containing 8 μM adenosine-5′-triphosphate (ATP) was added to all test wells except “blank” control wells which contained MnCl2 without ATP. […]

[2] = target: T2, VEGF receptor tyrosine kinase (Homo sapiens, UniProt P17948); test: In vitro receptor tyrosine kinase inhibition test (VEGF receptor); format: biochemical
T2 construct: encoding most of the cytoplasmic domain, commencing with methionine 783 and including the termination codon; made in house; host or cells: Spodoptera frugiperda Sf21 insect cells (baculovirus); cleared Triton X100 lysate used as enzyme stock
T2 sequence (P17948 781-1338 limits assumed): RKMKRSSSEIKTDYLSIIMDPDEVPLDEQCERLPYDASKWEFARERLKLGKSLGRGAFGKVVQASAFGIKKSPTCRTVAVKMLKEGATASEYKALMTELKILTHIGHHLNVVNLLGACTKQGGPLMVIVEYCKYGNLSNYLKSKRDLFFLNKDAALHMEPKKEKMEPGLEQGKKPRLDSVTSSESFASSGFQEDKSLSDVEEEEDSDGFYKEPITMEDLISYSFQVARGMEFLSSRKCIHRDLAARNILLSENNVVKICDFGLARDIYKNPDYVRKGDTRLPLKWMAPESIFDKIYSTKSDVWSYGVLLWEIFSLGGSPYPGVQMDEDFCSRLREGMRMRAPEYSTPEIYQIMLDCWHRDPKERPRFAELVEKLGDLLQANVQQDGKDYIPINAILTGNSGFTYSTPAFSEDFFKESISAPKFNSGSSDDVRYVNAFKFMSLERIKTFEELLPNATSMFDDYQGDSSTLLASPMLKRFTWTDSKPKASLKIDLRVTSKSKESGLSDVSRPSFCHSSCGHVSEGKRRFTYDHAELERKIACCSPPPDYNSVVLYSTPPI
Description: as §1
This assay determines the ability of a test compound to inhibit tyrosine kinase activity. […] These may then be expressed in a suitable expression system to obtain polypeptide with tyrosine kinase activity. […] This recombinant construct was co-transfected into insect cells (for example Spodoptera frugiperda 21 (Sf21)) with viral DNA (eg Pharmingen BaculoGold) to prepare recombinant baculovirus.
For expression of cFlt tyrosine kinase activity, Sf21 cells were infected with plaque-pure cFlt recombinant virus at a multiplicity of infection of 3 and harvested 48 hours later. […] The suspension was centrifuged for 10 minutes at 13.000 rpm at 4° C., the supernatant (enzyme stock) was removed and stored in aliquots at −70° C. Each new batch of stock enzyme was titrated in the assay by dilution with enzyme diluent (100 mM Hepes pH 7.4, 0.2 mM Na3VO4, 0.1% v/v Triton X100, 0.2 mM dithiothreitol). For a typical batch, stock enzyme is diluted 1 in 2000 with enzyme diluent and 50 μl of dilute enzyme is used for each assay well.
as §2, §3, §4
Test compounds were diluted with 10% dimethylsulphoxide (DMSO) and 25 μl of diluted compound was transferred to wells in the washed assay plates. “Total” control wells contained 10% DMSO instead of compound. Twenty five microliters of 40 mM MnCl2 containing 8 μM adenosine-5′-triphosphate (ATP) was added to all test wells except “blank” control wells which contained MnCl2 without ATP. To start the reactions 50 μl of freshly diluted enzyme was added to each well and the plates were incubated at room temperature for 20 minutes. The liquid was then discarded and the wells were washed twice with PBST. […] Plates were then incubated for 20-60 minutes at room temperature until the optical density value of the “total” control wells, measured at 405 nm using a plate reading spectrophotometer, was approximately 1.0.

T1 sequence (P00533 669-1210 limits assumed): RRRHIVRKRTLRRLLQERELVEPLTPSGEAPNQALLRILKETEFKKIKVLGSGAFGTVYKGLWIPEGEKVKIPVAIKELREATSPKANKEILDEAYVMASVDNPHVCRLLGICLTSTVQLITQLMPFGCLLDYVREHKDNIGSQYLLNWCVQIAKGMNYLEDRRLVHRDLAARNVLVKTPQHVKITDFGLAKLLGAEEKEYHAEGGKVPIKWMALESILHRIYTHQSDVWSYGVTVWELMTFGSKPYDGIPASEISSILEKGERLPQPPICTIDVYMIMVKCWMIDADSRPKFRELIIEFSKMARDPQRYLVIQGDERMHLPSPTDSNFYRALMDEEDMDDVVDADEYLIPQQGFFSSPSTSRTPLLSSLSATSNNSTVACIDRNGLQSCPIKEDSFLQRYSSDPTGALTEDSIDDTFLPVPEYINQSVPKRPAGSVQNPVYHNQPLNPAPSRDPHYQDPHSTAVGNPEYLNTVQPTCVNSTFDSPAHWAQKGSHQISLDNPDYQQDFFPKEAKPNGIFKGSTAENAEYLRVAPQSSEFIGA

SMILES: COc1cc2c(Nc3cc(O)c(C)cc3F)cnnc2cc1OCc1nccn1C.Cl
- melting point: 215 to 221 °C

SMILES: COc1cc2c(Nc3cc(O)c(C)cc3F)cnnc2cc1OCc1ccncc1.Cl
- melting point: 244 to 252 °C

SMILES: COCCOc1cc2nncc(Nc3ccc(Br)cc3F)c2cc1OC (as salt: hydrochloride) [Example 5, 4-(4-bromo-2-fluoroanilino)-6-methoxy-7-(2-methoxyethoxy)cinnoline]
- melting point: 278 to 281 °C

SMILES: COc1cc2c(Nc3cc(O)c(Cl)cc3F)cnnc2cc1OCc1ccccc1 (as salt: hydrochloride) [Example 6, 7-benzyloxy-4-(4-chloro-2-fluoro-5-hydroxyanilino)-6-methoxycinnoline]
- melting point: 280 to 284 °C

SMILES: COc1cc2c(Nc3cc(OC(C)=O)c(Cl)cc3F)cnnc2cc1OCc1ccccc1 (as salt: hydrochloride) [Example 7, 4-(5-acetoxy-4-chloro-2-fluoroanilino)-7-benzyloxy-6-methoxycinnoline]
- melting point: 240 to 247 °C

SMILES: COc1cc2c(Nc3cc(O)c(Cl)cc3F)cnnc2cc1OCc1ccncc1 (as salt: hydrochloride) [Example 10, 4-(4-chloro-2-fluoro-5-hydroxyanilino)-6-methoxy-7-(4-pyridylmethoxy)cinnoline]
- melting point: 243 to 251 °C

SMILES: COCCOc1cc2nncc(Nc3cc(O)c(C)cc3F)c2cc1OC (as salt: hydrochloride) [Example 11, 4-(2-fluoro-5-hydroxy-4-methylanilino)-6-methoxy-7-(2-methoxyethoxy)cinnoline]
- melting point: 283 to 290 °C

SMILES: COc1cc2c(Nc3cc(O)c(Cl)cc3F)cnnc2cc1OCCCN1CCOCC1 (as salt: hydrochloride) [Example 12, 4-(4-chloro-2-fluoro-5-hydroxyanilino)-6-methoxy-7-(3-morpholinopropoxy)cinnoline]
- melting point: 218 to 225 °C

SMILES: COc1cc2c(Nc3cc(O)c(Cl)cc3F)cnnc2cc1OCCCN1CCCC1 (as salt: hydrochloride) [Example 13, 4-(4-chloro-2-fluoro-5-hydroxyanilino)-6-methoxy-7-(3-pyrrolidinopropoxy)cinnoline]
- melting point: 240 to 245 °C

SMILES: COc1ccc2c(Nc3ccc(C)c(O)c3)cnnc2c1 (as salt: hydrochloride) [Example 14, 4-(3-hydroxy-4-methylanilino)-7-methoxycinnoline]
- melting point: 270 to 275 °C

SMILES: COc1cc2nncc(Nc3cc(O)c(C)cc3F)c2cc1OC (as salt: hydrochloride) [Example 21, 4-(2-fluoro-5-hydroxy-4-methylanilino)-6,7-dimethoxycinnoline]
- melting point: 251 to 253 °C

SMILES: COc1cc2nncc(Nc3cc(O)c(Cl)cc3F)c2cc1OC (as salt: hydrochloride) [Example 22, 4-(4-chloro-2-fluoro-5-hydroxyanilino)-6,7-dimethoxycinnoline]
- melting point: 255 to 256 °C

SMILES: COCCOCCOc1cc2nncc(Nc3cc(O)c(C)cc3F)c2cc1OC (as salt: hydrochloride) [Example 23, 4-(2-fluoro-5-hydroxy-4-methylanilino)-6-methoxy-7-[2-(2-methoxyethoxy)ethoxy]cinnoline]
- melting point: 250 to 256 °C

SMILES: COCCOc1cc2nncc(Nc3cc(O)c(C)cc3F)c2cc1OC [4-(2-fluoro-5-hydroxy-4-methylanilino)-6-methoxy-7-(2-methoxyethoxy)cinnoline]
- activity against epidermal growth factor (EGF) receptor tyrosine kinase [1]: lack of significant activity
- activity against VEGF receptor tyrosine kinase [2]: good activity

SMILES: COc1cc2c(Nc3cc(O)c(C)cc3F)cnnc2cc1OCc1nccn1C [4-(2-fluoro-5-hydroxy-4-methylanilino)-6-methoxy-7-[(1-methylimidazol-2-yl)methoxy]cinnoline]
- activity against epidermal growth factor (EGF) receptor tyrosine kinase [1]: lack of significant activity
- activity against VEGF receptor tyrosine kinase [2]: good activity

SMILES: COc1cc2c(Nc3cc(O)c(C)cc3F)cnnc2cc1OCc1csc(C)n1 [4-(2-fluoro-5-hydroxy-4-methylanilino)-6-methoxy-7-[(2-methylthiazol-4-yl)methoxy]cinnoline]
- activity against epidermal growth factor (EGF) receptor tyrosine kinase [1]: lack of significant activity
- activity against VEGF receptor tyrosine kinase [2]: good activity

SMILES: COc1cc2nncc(Nc3ccc(C)c(O)c3)c2cc1OC [Example 1, 4-(3-hydroxy-4-methylanilino)-6,7-dimethoxycinnoline]
- melting point: 240 to 244 °C

SMILES: COCCOc1cc2nncc(Nc3cc(O)c(Cl)cc3F)c2cc1OC [Example 8, 4-(4-chloro-2-fluoro-5-hydroxyanilino)-6-methoxy-7-(2-methoxyethoxy)cinnoline]
- activity against epidermal growth factor (EGF) receptor tyrosine kinase [1]: lack of significant activity
- activity against VEGF receptor tyrosine kinase [2]: good activity

SMILES: COCCOc1cc2nncc(Nc3cc(O)c(Br)cc3F)c2cc1OC [Example 9, 4-(4-bromo-2-fluoro-5-hydroxyanihno)-6-methoxy-7-(2-methoxyethoxy)cinnoline]
- activity against epidermal growth factor (EGF) receptor tyrosine kinase [1]: lack of significant activity
- activity against VEGF receptor tyrosine kinase [2]: good activity

SMILES: COCCOc1cc2nncc(Oc3cc(O)c(C)cc3F)c2cc1OC [Example 20, 4-(2-fluoro-5-hydroxy-4-methylphenoxy)-6-methoxy-7-(2-methoxyethoxy)cinnoline]
- melting point: 267 to 273 °C
